Measurements published in patent publication US4829069A, “4-Thioquinazoline derivatives as antiulcer agents” (Nisshin Flour Milling Co., Ltd., priority 1987, dated 1989).

What was measured:
[1] = tested on: indomethacin induced ulcer; test: Antiulcer activity: suppression of indomethacin induced ulcer; type: in vivo, mouse (ddy series male mice); details: 100 mg/kg to the stomach 30 minutes before 20 mg/kg indomethacin p.o.; mean ulcer index vs control group, 4 hours after indomethacin
Method: The antiulcer activity of the compounds of this invention was determined by the following method. Four-week-old ddy series male mice were used as the test animals after they were fasted for 24 hours. Each test compound suspended in a 1% gum arabic solution was administered to the stomach of each mouse at a dose of 100 mg/kg, and then, after 30 minutes, 20 mg/kg of indomethacin was administered orally. Four hours after the administration of indomethacin, the stomach of mouse was extirpated and the length of ulcers was measured. Then, the ulcer index was determined by the total sum of the scores as calculated in Table 1. The mean ulcer index of each group was calculated and the suppression rate against the control group in terms of difference in the mean ulcer index was determined.

[2] = Toxicity, LD50 (P.O.); details: in vivo, po
[3] = Reversion test
[4] = background; cited from earlier work

SMILES: c1ccc(CSc2ncnc3ccccc23)nc1 [4-(2-Pyridylmethylthio)-quinazoline]
- Suppression rate of indomethacin induced ulcer, 100 mg/kg, p.o. [1]: 94
- LD50 [2]: > 1000 mg/kg
- reversion test [3]: negative

SMILES: c1ccc2nc(CSc3ncnc4ccccc34)ccc2c1 [4-(2-Quinolylmethylthio)-quinazoline]
- Suppression rate of indomethacin induced ulcer, 100 mg/kg, p.o. [1]: 70

SMILES: c1ccc2c(SCc3ccncc3)ncnc2c1 [4-(4-Pyridylmethylthio)-quinazoline]
- Suppression rate of indomethacin induced ulcer, 100 mg/kg, p.o. [1]: 92

SMILES: CCN(CC)CCSc1ncnc2ccccc12 [4-[2-(Diethylamino)ethylthio]-quinazoline]
- Suppression rate of indomethacin induced ulcer, 100 mg/kg, p.o. [1]: 49

SMILES: COc1cc(CSc2ncnc3ccccc23)ncc1C [4-[(4-Methoxy-5-methylpyridin-2-yl)methylthio]-quinazoline]
- Suppression rate of indomethacin induced ulcer, 100 mg/kg, p.o. [1]: 81

SMILES: Cc1ccnc(CSc2ncnc3ccccc23)c1 [4-[(4-Methylpyridin-2-yl)methylthio]-quinazoline]
- Suppression rate of indomethacin induced ulcer, 100 mg/kg, p.o. [1]: 70

SMILES: CN/C(=N/CCSCc1nc[nH]c1C)NC#N [Cimetidine, reference compound]
- Suppression rate of indomethacin induced ulcer, 100 mg/kg, p.o. [1]: 40
- side effects [4]: gynecomatism
